Results reported in ChEMBL document CHEMBL3885881, “DrugMatrix”.

Species on record: Rattus norvegicus
Experiment: DrugMatrix - Regimen: Daily Repeat
Assay type: toxicity, organism-based, Sprague-Dawley
Parameters: regimen Daily Repeat, gender Male, age 6-8 weeks
Conditions: in vivo, iv, vehicle 100 % SALINE; for ABSOLUTE BASOPHIL / ABSOLUTE EOSINOPHIL / ABSOLUTE LYMPHOCYTE / ABSOLUTE MONOCYTE / ABSOLUTE SEGMENTED NEUTROPHIL / BASOPHIL / EOSINOPHIL / ERYTHROCYTE COUNT / HEMATOCRIT / HEMOGLOBIN / LEUKOCYTE COUNT / LYMPHOCYTE / MEAN CORPUSCULAR HEMOGLOBIN / MEAN CORPUSCULAR HEMOGLOBIN CONCENTRATION / MEAN CORPUSCULAR VOLUME / MONOCYTE / NEUTROPHIL / NUCLEATED RED BLOOD CELLS / PLATELET COUNT: tissue Blood; for ALANINE AMINOTRANSFERASE / ALBUMIN / ALKALINE PHOSPHATASE / ASPARTATE AMINOTRANSFERASE / BLOOD UREA NITROGEN / CARBON DIOXIDE / CHLORIDE / CHOLESTEROL / CREATINE PHOSPHOKINASE / CREATININE / GLUCOSE / LACTATE DEHYDROGENASE / LIPASE / PHOSPHORUS / POTASSIUM / SODIUM / TOTAL BILIRUBIN / TOTAL PROTEIN / URIC ACID: tissue Plasma
[1] = 0.01 mg/kg, 72 h, dose level Low, time 3 day
[2] = 0.01 mg/kg, 120 h, dose level Low, time 5 day
[3] = 15 mg/kg, 72 h, dose level High, time 3 day

Question: Which “ABSOLUTE BASOPHIL” value [1] does the source give for `CC(C)NCC(O)c1ccc(O)c(O)c1` (centres undefined) [ISOPROTERENOL] here?
Answer: 0 CELLS/uL

Question: What about the “ABSOLUTE EOSINOPHIL” value [1] of the same molecule?
Answer: 134.67 CELLS/uL

Question: And the “ABSOLUTE LYMPHOCYTE” value [1]?
Answer: 13411.33 CELLS/uL

Question: And the “ABSOLUTE MONOCYTE” value [1]?
Answer: 299.67 CELLS/uL

Question: And the “ABSOLUTE SEGMENTED NEUTROPHIL” value [1]?
Answer: 1854.33 CELLS/uL

Question: And the BASOPHIL [1]?
Answer: 0%

Question: What about the EOSINOPHIL [1] of the same molecule?
Answer: 0.67%

Question: What about the “ERYTHROCYTE COUNT” value [1] of the same molecule?
Answer: 5.6 x10E6/uL

Question: What about the HEMATOCRIT [1] of the same molecule?
Answer: 34.43%

Question: And the HEMOGLOBIN [1]?
Answer: 12.9 G/DL

Question: What about the “LEUKOCYTE COUNT” value [1] of the same molecule?
Answer: 15.7 x10E3/uL

Question: And the LYMPHOCYTE [1]?
Answer: 85.33%

Question: And the “MEAN CORPUSCULAR HEMOGLOBIN” value [1]?
Answer: 23.03 pg

Question: What about the “MEAN CORPUSCULAR HEMOGLOBIN CONCENTRATION” value [1] of the same molecule?
Answer: 37.47 G/DL

Question: What about the “MEAN CORPUSCULAR VOLUME” value [1] of the same molecule?
Answer: 61.43 fL

Question: What about the MONOCYTE [1] of the same molecule?
Answer: 2%

Question: What about the NEUTROPHIL [1] of the same molecule?
Answer: 12%

Question: What about the “NUCLEATED RED BLOOD CELLS” value [1] of the same molecule?
Answer: 0 /100WBC

Question: And the “PLATELET COUNT” value [1]?
Answer: 1265.33 x10E3/uL

Question: What about the “ALANINE AMINOTRANSFERASE” value [1] of the same molecule?
Answer: 39.67 u/L

Question: What about the ALBUMIN [1] of the same molecule?
Answer: 4.4 G/DL

Question: And the “ALKALINE PHOSPHATASE” value [1]?
Answer: 368 u/L

Question: What about the “ASPARTATE AMINOTRANSFERASE” value [1] of the same molecule?
Answer: 75 u/L

Question: And the “BLOOD UREA NITROGEN” value [1]?
Answer: 14.33 mg/dL

Question: And the “CARBON DIOXIDE” value [1]?
Answer: 25 mmol/L

Question: And the CHLORIDE [1]?
Answer: 104 MEQ/L

Question: What about the CHOLESTEROL [1] of the same molecule?
Answer: 69.67 mg/dL

Question: And the “CREATINE PHOSPHOKINASE” value [1]?
Answer: 196.33 u/L

Question: What about the CREATININE [1] of the same molecule?
Answer: 0.24 mg/dL

Question: And the GLUCOSE [1]?
Answer: 149.67 mg/dL

Question: What about the “LACTATE DEHYDROGENASE” value [1] of the same molecule?
Answer: 289 u/L

Question: What about the LIPASE [1] of the same molecule?
Answer: 9.67 u/L

Question: And the PHOSPHORUS [1]?
Answer: 13.47 mg/dL

Question: And the POTASSIUM [1]?
Answer: 6.71 MEQ/L

Question: And the SODIUM [1]?
Answer: 146.07 MEQ/L

Question: And the “TOTAL BILIRUBIN” value [1]?
Answer: 0.2 mg/dL

Question: What about the “TOTAL PROTEIN” value [1] of the same molecule?
Answer: 5.97 G/DL

Question: And the “URIC ACID” value [1]?
Answer: 2.17 mg/dL

Question: And the “ABSOLUTE BASOPHIL” value [2]?
Answer: 0 CELLS/uL

Question: And the “ABSOLUTE EOSINOPHIL” value [2]?
Answer: 0 CELLS/uL

Question: And the “ABSOLUTE LYMPHOCYTE” value [2]?
Answer: 15742 CELLS/uL

Question: What about the “ABSOLUTE MONOCYTE” value [2] of the same molecule?
Answer: 224 CELLS/uL

Question: What about the “ABSOLUTE SEGMENTED NEUTROPHIL” value [2] of the same molecule?
Answer: 800.67 CELLS/uL

Question: What about the BASOPHIL [2] of the same molecule?
Answer: 0%

Question: What about the EOSINOPHIL [2] of the same molecule?
Answer: 0%

Question: What about the “ERYTHROCYTE COUNT” value [2] of the same molecule?
Answer: 5.33 x10E6/uL

Question: And the HEMATOCRIT [2]?
Answer: 32.33%

Question: And the HEMOGLOBIN [2]?
Answer: 12.57 G/DL

Question: What about the “LEUKOCYTE COUNT” value [2] of the same molecule?
Answer: 16.77 x10E3/uL

Question: And the LYMPHOCYTE [2]?
Answer: 94%

Question: What about the “MEAN CORPUSCULAR HEMOGLOBIN” value [2] of the same molecule?
Answer: 23.6 pg

Question: And the “MEAN CORPUSCULAR HEMOGLOBIN CONCENTRATION” value [2]?
Answer: 38.9 G/DL

Question: What about the “MEAN CORPUSCULAR VOLUME” value [2] of the same molecule?
Answer: 60.67 fL

Question: What about the MONOCYTE [2] of the same molecule?
Answer: 1.33%

Question: What about the NEUTROPHIL [2] of the same molecule?
Answer: 4.67%

Question: And the “NUCLEATED RED BLOOD CELLS” value [2]?
Answer: 0 /100WBC

Question: What about the “PLATELET COUNT” value [2] of the same molecule?
Answer: 1122.67 x10E3/uL

Question: And the “ALANINE AMINOTRANSFERASE” value [2]?
Answer: 81 u/L

Question: What about the ALBUMIN [2] of the same molecule?
Answer: 3.6 G/DL

Question: And the “ALKALINE PHOSPHATASE” value [2]?
Answer: 310 u/L

Question: What about the “ASPARTATE AMINOTRANSFERASE” value [2] of the same molecule?
Answer: 65 u/L

Question: And the “BLOOD UREA NITROGEN” value [2]?
Answer: 16.67 mg/dL

Question: What about the “CARBON DIOXIDE” value [2] of the same molecule?
Answer: 24 mmol/L

Question: What about the CHLORIDE [2] of the same molecule?
Answer: 107.5 MEQ/L

Question: What about the CHOLESTEROL [2] of the same molecule?
Answer: 61.33 mg/dL

Question: And the “CREATINE PHOSPHOKINASE” value [2]?
Answer: 282.67 u/L

Question: What about the CREATININE [2] of the same molecule?
Answer: 0.3 mg/dL

Question: What about the GLUCOSE [2] of the same molecule?
Answer: 161.67 mg/dL

Question: And the “LACTATE DEHYDROGENASE” value [2]?
Answer: 140 u/L

Question: And the LIPASE [2]?
Answer: 11 u/L

Question: And the PHOSPHORUS [2]?
Answer: 11.23 mg/dL

Question: What about the POTASSIUM [2] of the same molecule?
Answer: 6.08 MEQ/L

Question: What about the SODIUM [2] of the same molecule?
Answer: 146.4 MEQ/L

Question: And the “TOTAL BILIRUBIN” value [2]?
Answer: 0.13 mg/dL

Question: What about the “TOTAL PROTEIN” value [2] of the same molecule?
Answer: 5.73 G/DL

Question: And the “URIC ACID” value [2]?
Answer: 1.3 mg/dL

Question: And the “ABSOLUTE BASOPHIL” value [3]?
Answer: 0 CELLS/uL

Question: What about the “ABSOLUTE EOSINOPHIL” value [3] of the same molecule?
Answer: 47.67 CELLS/uL

Question: And the “ABSOLUTE LYMPHOCYTE” value [3]?
Answer: 15188.67 CELLS/uL

Question: What about the “ABSOLUTE MONOCYTE” value [3] of the same molecule?
Answer: 404 CELLS/uL

Question: And the “ABSOLUTE SEGMENTED NEUTROPHIL” value [3]?
Answer: 1159.67 CELLS/uL

Question: What about the BASOPHIL [3] of the same molecule?
Answer: 0%

Question: What about the EOSINOPHIL [3] of the same molecule?
Answer: 0.33%

Question: What about the “ERYTHROCYTE COUNT” value [3] of the same molecule?
Answer: 5.66 x10E6/uL

Question: What about the HEMATOCRIT [3] of the same molecule?
Answer: 36.93%

Question: And the HEMOGLOBIN [3]?
Answer: 13.6 G/DL

Question: What about the “LEUKOCYTE COUNT” value [3] of the same molecule?
Answer: 16.8 x10E3/uL

Question: And the LYMPHOCYTE [3]?
Answer: 90.67%

Question: What about the “MEAN CORPUSCULAR HEMOGLOBIN” value [3] of the same molecule?
Answer: 24 pg

Question: What about the “MEAN CORPUSCULAR HEMOGLOBIN CONCENTRATION” value [3] of the same molecule?
Answer: 36.83 G/DL

Question: What about the “MEAN CORPUSCULAR VOLUME” value [3] of the same molecule?
Answer: 65.2 fL

Question: What about the MONOCYTE [3] of the same molecule?
Answer: 2.33%

Question: What about the NEUTROPHIL [3] of the same molecule?
Answer: 6.67%

Question: What about the “NUCLEATED RED BLOOD CELLS” value [3] of the same molecule?
Answer: 0 /100WBC

Question: And the “PLATELET COUNT” value [3]?
Answer: 1372 x10E3/uL

Question: And the “ALANINE AMINOTRANSFERASE” value [3]?
Answer: 39 u/L

Question: And the ALBUMIN [3]?
Answer: 4.1 G/DL

Question: And the “ALKALINE PHOSPHATASE” value [3]?
Answer: 370.67 u/L

Question: What about the “ASPARTATE AMINOTRANSFERASE” value [3] of the same molecule?
Answer: 73.67 u/L

Question: And the “BLOOD UREA NITROGEN” value [3]?
Answer: 19.33 mg/dL

Question: And the “CARBON DIOXIDE” value [3]?
Answer: 24.67 mmol/L

Question: And the CHLORIDE [3]?
Answer: 106 MEQ/L

Question: What about the CHOLESTEROL [3] of the same molecule?
Answer: 80.33 mg/dL

Question: What about the “CREATINE PHOSPHOKINASE” value [3] of the same molecule?
Answer: 282.67 u/L

Question: And the CREATININE [3]?
Answer: 0.17 mg/dL

Question: And the GLUCOSE [3]?
Answer: 151.33 mg/dL

Question: And the “LACTATE DEHYDROGENASE” value [3]?
Answer: 128.33 u/L

Question: What about the LIPASE [3] of the same molecule?
Answer: 9 u/L

Question: What about the PHOSPHORUS [3] of the same molecule?
Answer: 10.87 mg/dL
